Measurements from patent US20260130885A1, “ANTIMICROBIAL COMPOSITIONS, PHARMACEUTICAL COMPOSITIONS AND USE THEREOF” (priority 2022, published 2026).
Where two headings read alike, the source gives them in different places.

System: MRSA USA300
Test: Antibacterial activity assay (MIC by broth microdilution, MBC by subculture)
Type: cell-based, Staphylococcus aureus
Settings: for synergy of the fatty acid with SC5005 (in words): summary of Tables 1 and 2; for bactericidal combination effect of the fatty acid with SC5005 (in words): MBC, Table 2; for effect of the fatty acid on the MIC of SC5005 (in words): summary of Table 1
Procedure: The antimicrobial activity was based on MIC and MBC; MIC is the minimum inhibitory concentration and MBC is the minimum bactericidal concentration. The MIC of individual test agents against MRSA USA300 strains was determined using the broth microdilution method according to CLSI guidelines. Briefly, overnight bacterial cultures in LB medium were diluted 1:50 in fresh LB medium and incubated at 37° C. until reaching an OD600 of 0.5 to 0.6. Bacterial suspensions were diluted to a final concentration of 5×10^5 cfu/mL in fresh CAMHB and then exposed to each test agent at increasing doses in triplicate in 96-well plates for 24 hours at 37° C. The MIC of each agent was defined as the lowest concentration without visible bacterial growth. […] The lowest broth dilution that had no viable bacteria was considered the MBC.
Then, the combination effect was measured by calculating their corresponding fractional inhibitory concentration index (FICI) with the equation ΣFIC (FICi)=FICA+FICB=(CombA/MICA)+(CombB/MICB), where MICA and MICB are the MICs of drugs A and B alone, respectively, and CombA and CombB are the concentrations of drugs A and B in combination, respectively. […] was defined as an FICI≤0.5, no interaction was defined as an FICI>0.5-4.0, and antagonism was defined as an FICI>4.

[1] = Staphylococcus aureus, amide compound alone, read-out: MBC
[2] = Staphylococcus aureus, amide compound alone, read-out: MIC
[3] = Staphylococcus aureus, fatty acid alone, read-out: MBC fatty acid
[4] = Staphylococcus aureus, fatty acid alone, read-out: MIC fatty acid

Compound | MIC (+8 mg/L DHA) [µg/mL] | MIC [2] [µg/mL] | MBC [1] [µg/mL] | MBC (+8 mg/L DHA) [µg/mL] | also measured
O=C(Nc1ccc2c(c1)OCO2)Nc1ccc(Cl)c(C(F)(F)F)c1 [1-159, reference compound] | 0.125 | 32 | 64 |  | 
O=C(Nc1ccc(Cl)c(C(F)(F)F)c1)Nc1cccc(OF)c1OF [1-164, reference compound] | 0.03125 | 0.25 | 4 |  | 
O=C(Nc1ccc(Oc2ccccc2)cc1)Nc1ccc(Cl)c(C(F)(F)F)c1 [3-006, reference compound] | 0.0078 | 0.125 | 1 |  | 
CC/C=C\C/C=C\C/C=C\C/C=C\C/C=C\CCCC(=O)O [Eicosapentaenoic acid, eicosapentaenoic acid] |  |  |  |  | MBC [3]: 1020 µg/mL; MIC [4]: 64 µg/mL
O=C(Nc1ccc([N+](=O)[O-])c(C(F)(F)F)c1)C(CCCl)C(=O)Nc1ccc([N+](=O)[O-])c(C(F)(F)F)c1 [SC5034] | 1 | 16 | 32 | 1 | 
O=C(Nc1cc(Cl)cc(Cl)c1)C(CCCl)C(=O)Nc1ccc([N+](=O)[O-])c(C(F)(F)F)c1 (centres unmarked) [SC5041] | 0.0625 | 0.5 | 2 | 0.0625 | 
CCCCC/C=C\C/C=C\C/C=C\C/C=C\CCCC(=O)O [arachidonic acid] |  |  |  |  | MBC [3]: 1020 µg/mL; MIC [4]: 128 µg/mL
CCCCCCCC/C=C/CCCCCCCC(=O)O [elaidic acid] |  |  |  |  | MBC [3]: > 1020 µg/mL; MIC [4]: > 1020 µg/mL; synergy of the fatty acid with SC5005 (in words): did not exhibit synergy with SC5005
CCCCCCCC/C=C\CCCCCCCCCCCC(=O)O [erucic acid] |  |  |  |  | bactericidal combination effect of the fatty acid with SC5005 (in words): exhibited a synergistic bactericidal effect with SC5005; MBC [3]: 1020 µg/mL; MIC [4]: 128 µg/mL; effect of the fatty acid on the MIC of SC5005 (in words): had no effect on the MIC of SC5005
CCCCCCCC/C=C\CCCCCCCCCC(=O)O [gondoic acid] |  |  |  |  | bactericidal combination effect of the fatty acid with SC5005 (in words): exhibited a synergistic bactericidal effect with SC5005; MBC [3]: > 1020 µg/mL; MIC [4]: 512 µg/mL; effect of the fatty acid on the MIC of SC5005 (in words): had no effect on the MIC of SC5005
CCCCC/C=C\C/C=C\CCCCCCCC(=O)O [linoleic acid] |  |  |  |  | MBC [3]: > 1020 µg/mL; MIC [4]: 1020 µg/mL
CCCCCCCCCCCCCC(=O)O [myristic acid] |  |  |  |  | MBC [3]: > 1020 µg/mL; MIC [4]: 512 µg/mL; synergy of the fatty acid with SC5005 (in words): neither of nervonic acid (C24:1n9c) and myristic acid (C14:1n5c), which have 24 and 14 carbon atoms respectively, showed any synergistic activity with SC5005
CCCCCCCC/C=C\CCCCCCCCCCCCCC(=O)O [nervonic acid] |  |  |  |  | MBC [3]: > 1020 µg/mL; MIC [4]: 128 µg/mL; synergy of the fatty acid with SC5005 (in words): neither of nervonic acid (C24:1n9c) and myristic acid (C14:1n5c), which have 24 and 14 carbon atoms respectively, showed any synergistic activity with SC5005
CCCCCCCC/C=C\CCCCCCCC(=O)O [oleic acid] |  |  |  |  | MBC [3]: > 1020 µg/mL; MIC [4]: 512 µg/mL
CCCCCC/C=C\CCCCCCCC(=O)O [palmitoleic acid] |  |  |  |  | MBC [3]: 512 µg/mL; MIC [4]: 64 µg/mL; synergy of the fatty acid with SC5005 (in words): exhibited synergy
CCCCCCCCCCCCCCCCCC(=O)O [stearic acid] |  |  |  |  | MBC [3]: > 1020 µg/mL; MIC [4]: 512 µg/mL; synergy of the fatty acid with SC5005 (in words): failed to exhibit synergy

The next lines start with results.

MIC (+8 mg/L DHA) [µg/mL] | MIC [2] [µg/mL] | Compound | MBC [1] [µg/mL] | MBC (+8 mg/L DHA) [µg/mL] | also measured
>64 | > 64 | FC(F)(F)c1cc(Nc2cncc(Nc3ccc(Cl)c(C(F)(F)F)c3)n2)ccc1Cl [SC5010] | > 64 | >64 | 
>64 | > 64 | C#Cc1cccc(Nc2cncc(Nc3cccc(C#C)c3)n2)c1 [SC5015] | > 64 | >64 | 
0.125 | > 64 | O=C(Nc1ccc(Cl)c(C(F)(F)F)c1)C1(C(=O)Nc2ccc(Cl)c(C(F)(F)F)c2)CC1 [SC5020] | > 64 | 0.125 | 
64 | > 64 | C#Cc1cccc(NC(=O)C2(C(=O)Nc3cccc(C#C)c3)CC2)c1 [SC5021] | > 64 | 64 | 
>64 | > 64 | O=C(Nc1ccccc1)C(CCCl)C(=O)Nc1ccccc1 [SC5022] | > 64 | >64 | 
16 | > 64 | O=C(Nc1cccc(C(F)(F)F)c1)C(CCCl)C(=O)Nc1cccc(C(F)(F)F)c1 [SC5023] | > 64 | 16 | 
8 | > 64 | O=C(Nc1ccc(OC(F)(F)F)cc1)C(CCCl)C(=O)Nc1ccc(OC(F)(F)F)cc1 [SC5024] | > 64 | 8 | 
2 | 16 | O=C(Nc1cc(Cl)cc(Cl)c1)C(CCCl)C(=O)Nc1cc(Cl)cc(Cl)c1 [SC5025] | 32 | 2 | 
>64 | > 64 | C#Cc1cccc(NC(=O)C(CCCl)C(=O)Nc2cccc(C#C)c2)c1 [SC5026] | > 64 | >64 | 
64 | > 64 | O=C(Nc1cccc(Cl)c1)C(CCCl)C(=O)Nc1cccc(Cl)c1 [SC5027] | > 64 | >64 | 
1 | 16 | O=C(Nc1cc(Cl)cc(Cl)c1)C(CCCl)C(=O)Nc1ccc(Cl)c(C(F)(F)F)c1 (centres unmarked) [SC5035] | 32 | 2 | 
0.0039 | 1 | C=CCC(C(=O)Nc1ccc(Cl)c(C(F)(F)F)c1)C(=O)Nc1ccc(Cl)c(C(F)(F)F)c1 [SC5037] | 2 | 0.0078 | 
>64 | > 64 | C#Cc1cccc(NC(=O)C(CC=C)C(=O)Nc2cccc(C#C)c2)c1 [SC5038] | > 64 | >64 | 
0.0039 | 1 | C=CCC(C(=O)Nc1cc(Cl)cc(Cl)c1)C(=O)Nc1cc(Cl)cc(Cl)c1 [SC5040] | 2 | 0.125 | 
0.0156 | 2 | O=C(Nc1cc(Cl)cc(Cl)c1)C(Cc1ccccc1)C(=O)Nc1cc(Cl)cc(Cl)c1 [SC5043] | 4 | 0.0156 | 
0.000975 | 0.5 | O=C(Nc1cc(C(F)(F)F)cc(C(F)(F)F)c1)C(Cc1ccccc1)C(=O)Nc1cc(C(F)(F)F)cc(C(F)(F)F)c1 [SC5044] | 2 | 0.0078 | 
>64 | > 64 | O=C(NC1CCCCC1)C(CCCl)C(=O)NC1CCCCC1 [SC5048] | > 64 | >64 | 
8 | > 64 | CCCNC(=O)C(CCCl)C(=O)Nc1ccc(Cl)c(C(F)(F)F)c1 (centres unmarked) [SC5049] | > 64 | 8 | 
8 | > 64 | C=CCNC(=O)C(CCCl)C(=O)Nc1ccc(Cl)c(C(F)(F)F)c1 (centres unmarked) [SC5050] | > 64 | 16 | 
1 | > 64 | C=CCNC(=O)C(CCCl)C(=O)NCC=C [SC5052] | > 64 | 2 | 
1 | > 64 | O=C(Nc1ccc(Cl)c(C(F)(F)F)c1)C(CCCl)C(=O)NC1CCCCC1 (centres unmarked) [SC5053] | > 64 | 2 | 
>64 | > 64 | CN(C(=O)C(CCCl)C(=O)N(C)c1ccc(Cl)c(C(F)(F)F)c1)c1ccc(Cl)c(C(F)(F)F)c1 [SC5101] | > 64 | >64 | 
>64 | > 64 | CN(C(=O)C(CCCl)C(=O)N(C)c1cc(Cl)cc(Cl)c1)c1cc(Cl)cc(Cl)c1 [SC5102] | > 64 | >64 | 
0.0039 | 0.25 | O=C(Nc1ccc(Cl)c(C(F)(F)F)c1)C(CCCCl)C(=O)Nc1ccc(Cl)c(C(F)(F)F)c1 [SC5103] | 2 | 0.0078 | 
0.0078 | 0.5 | O=C(Nc1cc(Cl)cc(Cl)c1)C(F)(CCCl)C(=O)Nc1cc(Cl)cc(Cl)c1 [SC5104] | 4 | 0.0078 | 
0.125 | > 64 | O=C(Nc1ccc(Cl)c(C(F)(F)F)c1)C(F)(CCCl)C(=O)Nc1ccc(Cl)c(C(F)(F)F)c1 [SC5105] | > 64 | 0.125 | 
0.25 | > 64 | O=C(CC(=O)Nc1ccc(Cl)c(C(F)(F)F)c1)Nc1ccc(Cl)c(C(F)(F)F)c1 [SC5106] | > 64 | 0.5 | 
0.0625 |  | O=C(Nc1ccc(Cl)c(C(F)(F)F)c1)C1(C(=O)Nc2ccc(Cl)c(C(F)(F)F)c2)CC1 [SC5107] |  | 0.125 | MBC (amide compound alone): >64 µg/mL; MIC (amide compound alone): >64 µg/mL
0.00012 | 0.25 | O=C(Nc1ccc(Cl)c(C(F)(F)F)c1)Nc1ccc(Cl)c(C(F)(F)F)c1 [SC5178] | 2 | 0.00156 | 
